The values below come from ChEMBL document CHEMBL1201862, “PubChem BioAssay data set” (2004).

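Assay format: 96-well plates, 48-hour exposure. GI50 = concentration required for 50% inhibition of growth.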 The source made the active and inactive calls. Rule as the data show it: active = GI50 up to about 1.1 µM and inactive = higher.

Some test systems named below: A498; CCRF-CEM; DMS-273; EKVX; HCT-116; HL-60; HT-29; K562; KM-20L2; LOX IMVI; OVCAR-4; SF-295; SF-539; SK-MEL-2; SK-MEL-5; SN12C; SNB-19; SW-620; U-251; XF498.
What all share (assay): DTP human tumour cell line panel, 48 h

Take `O=C(c1ccccc1)c1ccc2c(c1)N=C(c1ccc(Cl)c(Cl)c1)CC(c1ccc3ccccc3c1)N2` (stereo not given): the GI50 in the assay on A498 is > 100 µM (inactive); in the assay on CCRF-CEM, 67.6 µM (inactive); in the assay on DMS-273, > 100 µM (inactive); with EKVX it was > 100 µM (inactive); in the assay with HCT-116, > 100 µM (inactive); with HL-60 it was 69 µM (inactive). Also, the GI50 with HT-29, in the assay with K562, with KM-20L2, in the assay on LOX IMVI, in the assay with OVCAR-4 and in the assay with SF-295 was > 100 µM (inactive) in each case. The GI50 in the assay with SF-539, in the assay with SK-MEL-2, with SK-MEL-5, in the assay on SN12C, in the assay with SNB-19 and in the assay on SW-620 was > 100 µM (inactive) throughout. In addition, the GI50 in the assay with U-251 and in the assay with XF498 was > 100 µM (inactive) each time.

As for `CCCCNC(=O)C1C(=O)N(CCCC)C(=O)/C1=N\N` (stereo not given), the GI50 in the assay with A498, with DMS-273, with EKVX, in the assay with HCT-116, in the assay with HT-29 and in the assay on K562 was > 100 µM (inactive) throughout. Besides, the GI50 in the assay with KM-20L2, with LOX IMVI, in the assay on OVCAR-4, in the assay on SF-295, in the assay on SF-539 and with SK-MEL-2 was > 100 µM (inactive) throughout. Further, the GI50 with SK-MEL-5, in the assay with SN12C, in the assay on SNB-19, in the assay on SW-620, in the assay with U-251 and in the assay with XF498 was > 100 µM (inactive) each time.

For `CCC(C(=O)O)c1ccc(OCc2ccccc2)cc1` (stereo not given), the GI50 in the assay on A498, in the assay with CCRF-CEM, in the assay with DMS-273, with EKVX, with HCT-116 and in the assay with HL-60 was > 100 µM (inactive) in each case. The GI50 in the assay on HT-29, in the assay on K562, in the assay on KM-20L2, with LOX IMVI, in the assay on OVCAR-4 and in the assay with SF-295 was > 100 µM (inactive) in each case. The GI50 with SF-539, in the assay on SK-MEL-2, in the assay with SK-MEL-5, in the assay with SN12C, with SNB-19 and in the assay on SW-620 was > 100 µM (inactive) in each case. The GI50 with U-251 and with XF498 was > 100 µM (inactive) in each case.

Regarding `O[C@H]1[C@H](O)[C@@H](O)CN2CC[C@H](O)[C@H]12` [CASTANOSPERMINE], the GI50 in the assay on A498 was > 100 µM (inactive); with CCRF-CEM, > 100 µM (inactive); with DMS-273 it was > 100 µM (inactive); in the assay with EKVX, > 100 µM (inactive); with HCT-116, > 100 µM (inactive); with HL-60, > 39.8 µM (inactive). Also, the GI50 in the assay on HT-29 is > 100 µM (inactive); in the assay on K562, > 100 µM (inactive); in the assay on KM-20L2 it was > 100 µM (inactive); in the assay with LOX IMVI, > 100 µM (inactive); with OVCAR-4 it was > 86.7 µM (inactive); in the assay with SF-295 it was > 100 µM (inactive). The GI50 is > 100 µM (inactive) with SF-539; 99.3 µM (inactive) with SK-MEL-2; > 100 µM (inactive) in the assay on SK-MEL-5; > 100 µM (inactive) in the assay with SN12C; > 100 µM (inactive) in the assay with SNB-19; > 100 µM (inactive) in the assay with SW-620. For the same molecule, the GI50 with U-251 and in the assay on XF498 was > 100 µM (inactive) each time.

Take `CN(C)CCNCc1c2ccccc2c(CNCCN(C)C)c2ccccc12`: the GI50 in the assay on A498 is 27.1 µM (inactive); in the assay on CCRF-CEM, 20.8 µM (inactive); with DMS-273, 34 µM (inactive); in the assay with EKVX, 65.8 µM (inactive); in the assay on HCT-116, 16.5 µM (inactive); in the assay on HL-60, 20.5 µM (inactive). Besides, the GI50 is 14 µM (inactive) in the assay with HT-29; 17.8 µM (inactive) in the assay with K562; 7.29 µM (inactive) in the assay on KM-20L2; 18.1 µM (inactive) with LOX IMVI; 28.3 µM (inactive) with OVCAR-4; 49.2 µM (inactive) in the assay on SF-295. Also, the GI50 in the assay with SF-539 was 28.2 µM (inactive); in the assay with SK-MEL-2, 22.4 µM (inactive); in the assay with SK-MEL-5, 12.8 µM (inactive); in the assay on SN12C, 38.9 µM (inactive); in the assay on SW-620, 18 µM (inactive); in the assay on U-251, 20.9 µM (inactive). In the assay on XF498, the GI50 was 58.2 µM (inactive).

Regarding `Nc1nc(=O)n(C2OC(CO)C(O)C2O)cc1F` (stereo not given), the GI50 in the assay with A498 was > 100 µM (inactive); in the assay with CCRF-CEM it was < 0.0136 µM (active); with DMS-273, 4.36 µM (inactive); with HCT-116 it was 0.495 µM (active); in the assay with HL-60 it was 0.293 µM (active); with HT-29, 5.65 µM (inactive). Also, the concentration for 50% growth inhibition (GI50) is 0.506 µM (active) in the assay on K562; 2.29 µM (inactive) with KM-20L2; 0.297 µM (active) in the assay with LOX IMVI; > 100 µM (inactive) in the assay with OVCAR-4; 21.8 µM (inactive) with SF-295; 37.4 µM (inactive) in the assay on SF-539. Also, the GI50 with SK-MEL-2 was > 100 µM (inactive); in the assay with SN12C it was 3.28 µM (inactive); in the assay on SNB-19, 1.91 µM (inactive); in the assay with SW-620 it was 22.2 µM (inactive); with U-251, 3.72 µM (inactive); with XF498, > 100 µM (inactive).

Take `C=CCCC1(C)CCCNC1=S` (stereo not given): the GI50 in the assay with A498 is > 100 µM (inactive); in the assay with CCRF-CEM it was 17.7 µM (inactive); in the assay on DMS-273 it was > 100 µM (inactive); in the assay with EKVX, > 100 µM (inactive); in the assay on HCT-116, > 100 µM (inactive); with HL-60, > 100 µM (inactive). Further, the GI50 in the assay with HT-29, in the assay on K562, with KM-20L2, with LOX IMVI, in the assay with OVCAR-4 and with SF-295 was > 100 µM (inactive) throughout. Moreover, the GI50 in the assay on SF-539, in the assay with SK-MEL-2, in the assay on SK-MEL-5, with SN12C, with SNB-19 and in the assay with SW-620 was > 100 µM (inactive) each time. The GI50 in the assay with U-251 and in the assay on XF498 was > 100 µM (inactive) each time.

As for `O=C(O)CCC(NC(=O)c1ccc(Nc2nc3ccc(C(F)(F)F)cc3nc2-c2ccccc2)cc1)C(=O)O` (stereo not given), the GI50 with A498, with CCRF-CEM, in the assay with DMS-273, with EKVX, with HCT-116 and with HL-60 was > 100 µM (inactive) each time. Also, the GI50 was > 100 µM (inactive) in the assay on HT-29; 29.6 µM (inactive) with K562; > 100 µM (inactive) in the assay with KM-20L2; > 100 µM (inactive) in the assay with LOX IMVI; > 100 µM (inactive) in the assay with OVCAR-4; > 100 µM (inactive) in the assay with SF-295. Moreover, the GI50 in the assay on SF-539, in the assay with SK-MEL-2, in the assay on SK-MEL-5, in the assay on SN12C, in the assay with SNB-19 and in the assay on SW-620 was > 100 µM (inactive) in each case. Further, the GI50 was > 83 µM (inactive) in the assay on U-251 and 98.4 µM (inactive) in the assay with XF498.

On to `CCN1CC2(CO)CCC(OC)C34C5CC6C(OC)CC(O)(C5C6OC)C(O)(C(OC)C23)C14` (stereo not given), for which the GI50 in the assay with A498 is > 375 µM (inactive); with CCRF-CEM, > 375 µM (inactive); in the assay with DMS-273 it was > 375 µM (inactive); with EKVX, > 59.4 µM (inactive); in the assay with HCT-116 it was > 375 µM (inactive); in the assay with HL-60, > 375 µM (inactive). Besides, the GI50 is > 375 µM (inactive) in the assay on HT-29; > 375 µM (inactive) with K562; > 197 µM (inactive) in the assay on KM-20L2; > 375 µM (inactive) in the assay with LOX IMVI; > 375 µM (inactive) with OVCAR-4; > 375 µM (inactive) in the assay with SF-295. Further, the GI50 in the assay on SF-539 is > 375 µM (inactive); with SK-MEL-2, > 59.4 µM (inactive); in the assay with SK-MEL-5, > 211 µM (inactive); in the assay with SN12C it was > 375 µM (inactive); in the assay on SNB-19, > 375 µM (inactive); with SW-620, > 375 µM (inactive). The GI50 in the assay with U-251 is > 305 µM (inactive); in the assay with XF498, > 360 µM (inactive).

For `Cn1c(-c2ccccc2)cc(-c2cccs2)c1-c1cccs1`, the GI50 in the assay on A498 was > 100 µM (inactive); in the assay on CCRF-CEM, 18.2 µM (inactive); with DMS-273, > 100 µM (inactive); with EKVX, 34.2 µM (inactive); in the assay with HCT-116 it was > 100 µM (inactive); in the assay with HL-60, 54.8 µM (inactive). Further, the GI50 is 51.2 µM (inactive) in the assay with HT-29; 51.6 µM (inactive) in the assay on K562; 47.2 µM (inactive) with KM-20L2; 52 µM (inactive) in the assay on LOX IMVI; > 96.4 µM (inactive) in the assay on OVCAR-4; > 100 µM (inactive) in the assay with SF-295. The GI50 is > 100 µM (inactive) in the assay on SF-539; > 100 µM (inactive) in the assay on SK-MEL-2; 45.3 µM (inactive) in the assay with SK-MEL-5; > 100 µM (inactive) in the assay with SN12C; > 100 µM (inactive) in the assay with SNB-19; > 100 µM (inactive) in the assay with SW-620. The GI50 with U-251 and in the assay with XF498 was > 100 µM (inactive) in each case.

As a reminder, the GI50 is the concentration giving 50% growth inhibition.
